Test results: US20200326333A1, “DIAGNOSIS AND TREATMENT OF AUTOIMMUNE DISEASES” (OP-T LLC, priority 2019, published 2020)

Experiments:
[1] = test system: integrins from CD4lo cells (CD4loCD40+; Th40); experiment: KGYY15 immunoprecipitation with western blot, CD4lo cells; type: binding, mouse
Source text: (§1) FIG. 10A, FIG. 10B, FIG. 10C-1, FIG. 10C-2, FIG. 10D, FIG. 10E, FIG. 10F, FIG. 10G, FIG. 10H-1, FIG. 10H-2, FIG. 10I, FIG. 10J-1, FIG. 10J-2, and FIG. 10J-3 provide blots, tables, graphs, charts, and plots related to additional biomarkers, receptors, and peptides that may bind thereto. The blots of FIG. 10A, FIG. 10B, FIGS. 10C-1, 10C-2 and FIG. 10D provide immunoprecipitation results of western blots. […] FIG. 10E provides a table of when KGYY15 eluates from mouse PBMR, MHCII+, CD4hi or CD4lo cells in protein sequencing, for integrins and proteins listed in FIG. 10E. FIG. 10F provides results of a western blot when 3 different CD40 antibodies were used in immunoprecipitations on cells that had been incubated with mKGYY15-biotin prior to lysis. FIG. 10H-1 and FIG. 10H-2, FIG. 10I, and FIG. 10J-1, FIG. 10J-2, and FIG. 10J-3 provide additional binding tests and studies that were done regarding peptides of KGYY-4, KGYY-6, and KGYY6-Val.

[2] = test system: integrins from CD4hi cells (CD4+CD40−); experiment: KGYY15 immunoprecipitation with western blot, CD4hi cells; type: binding, mouse; conditions: αL more prominently from autoimmune NOD and αD from control Balb/c cells
Source text: as §1

With “VLQWAKKGYYTMKSN [KGYY15, 15-mer CD154-derived peptide around the KGYY core]” the β3 immunoprecipitation ([1]; cell population not stated) was “not β3”, the “integrins immunoprecipitated from CD4lo cells” value ([1]; more prominently from autoimmune NOD cells than from control Balb/c cells) was “immunoprecipitated primarily αM, αD and β2” and the CD11a immunoprecipitation ([1]; several differentially glycosylated (presumably) bands) was “immunoprecipitated but only from NOD CD4lo cells”. The “integrins immunoprecipitated from CD4hi cells” value [2] was “immunoprecipitated primarily αL, αD and β2”.
